Test results as given in BindingDB's records for doi:10.7270/Q2XG9T96 (n/a, 1997).

Target: Phosphatidylinositol 4-kinase type 2-alpha (Homo sapiens, UniProt Q9BTU6)
Experiment: Inhibition of Phosphatidylinositol 4-kinase of human epidermoid carcinoma A431 cells

Phosphatidylinositol 4-kinase type 2-alpha, sequence (Q9BTU6 whole entry): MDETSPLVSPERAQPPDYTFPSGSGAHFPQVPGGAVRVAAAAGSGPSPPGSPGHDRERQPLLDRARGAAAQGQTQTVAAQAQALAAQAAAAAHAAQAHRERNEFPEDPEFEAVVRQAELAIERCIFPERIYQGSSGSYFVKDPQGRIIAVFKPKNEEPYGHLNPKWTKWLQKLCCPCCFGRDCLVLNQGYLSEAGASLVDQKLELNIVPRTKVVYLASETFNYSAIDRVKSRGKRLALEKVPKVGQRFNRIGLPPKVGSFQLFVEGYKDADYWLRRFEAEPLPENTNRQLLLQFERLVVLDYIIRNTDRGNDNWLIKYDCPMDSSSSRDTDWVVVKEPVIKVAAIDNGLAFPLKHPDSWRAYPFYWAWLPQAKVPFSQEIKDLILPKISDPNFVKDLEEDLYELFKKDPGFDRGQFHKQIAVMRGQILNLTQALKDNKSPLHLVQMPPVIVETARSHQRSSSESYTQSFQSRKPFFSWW

`N=C(N)CCNC(=O)c1c[nH]c2nc(N)nc(O)c12` [ECHIGUANINE A] showed an IC50 of 113 nM.
